These results are taken from patent US20250195498A1, “INHIBITOR OF CELLULAR PURINE NUCLEOTIDE SALVAGE PATHWAY ENZYME FOR USE IN THE TREATMENT AND/OR PREVENTION OF HELICOBACTER PYLORI INFECTION AND/OR DISEASE ASSOCIATED WITH SUCH INFECTION AND PHARMACEUTICAL COMPOSITION COMPRISING THE SAME” (UNIWERSYTET WARSZAWSKI, priority 2022, published 2025).

Converted amounts (≈) assume the structure as drawn. “And” between values parts separate entries of the source, which are not always exact repeats. Equal entries are not always repeated. Where two headings read alike, the source gives them in different places. Marks after values point to notes of the source that are not given here. A value given as a limit tells only on which side of the number the result lay.

Assay [1] concerns H. pylori strain 26695. Nature of the assay: Growth curve method / MIC in liquid culture, strain 26695. The assay is classed as cell-based, Helicobacter pylori. The conditions noted are these: strain 26695; for MIC: read-out: MIC; for inhibition of bacterial growth: concentrations up to 5 mM. How it is done: (§1) The representative PNP inhibitor from H. pylori included in this study was immucillin A. The experiment was conducted using the growth curve method (two-fold serial dilutions in liquid medium). The tested H. pylori strains were cultured in Petri dishes with BHI solid medium supplemented with 10% FBS and 1% H. pylori Selective Supplement antibiotic kit, in anaerostats under microaerophilic conditions (5% 02, 10% CO2, 85% N2) at 37° C. for 3 days. Liquid culture of H. pylori was conducted overnight with shaking at 37° C. under microaerophilic conditions in BHI medium supplemented with 10% FBS and 1% H. pylori Selective Supplement antibiotic kit. Subsequently, for the essential experiment of determining the minimum inhibitory concentration (MIC), double strengthened liquid BHI medium was prepared, that is, supplemented with 20% FBS and a 2% set of H. pylori Selective Supplement antibiotics.
(§2) Bacterial proliferation inhibition experiments were carried out in 24-deep-well 2 ml flat-bottomed plates at a solution volume per well of 0.5 ml. In a single well, double strengthened (relative to the concentration planned for testing) solutions of the test inhibitor and double strengthened liquid BHI medium inoculated with H. pylori (10^4-10^5 CFU/ml in the final volume in the well, corresponding to the optical density of the culture OD600=0.05) were mixed together in a 1:1 ratio.
(§3) Kanamycin at a concentration of 25 μg/ml (Irie et al., 1997) was used as a positive control, while Mili-Q deionized water and BHI medium not inoculated with bacteria were used as negative controls. Plates were shaken at 37° C., under microaerophilic conditions. […] After 24 hours, the OD600 of samples containing the negative control, i.e. with Mili-Q deionized water, was about 1.2-1.4, corresponding to a bacterial concentration of about […].
(§4) In addition, the method proposed by Knezevic et al. (2018) was used to check whether the observed OD600 was from live bacterial cells. For this purpose, an equal volume of Christensen's double strength urea broth (that is, containing twice the concentration of all components) was added to the wells after incubation, and the plates were additionally incubated for 4 hours in an oxygen atmosphere at 37° C. During incubation, in wells with urease produced by live bacteria, urea is converted to ammonia and carbon dioxide, changing the pH of the solution and thus the colour of the phenol red indicator contained in the medium (from orange to purple).
(§5) All experiments were performed in triplicate.
The experiments were carried out using the growth curve method as described in Example 3, and the results obtained for two of the compounds tested are shown in FIG. 5. As the water solubility of the compounds tested, with the exception of 2,6-diCl-Pu, is relatively poor, two experiments were carried out: the first with the maximum concentration possible under the experimental conditions in aqueous solution with a small admixture of DMSO, and the second with higher concentrations that led to partial precipitation of the compound.
The antibacterial activity of two compounds, mefloquine (in the form of hydrochloride) and quinine, described in the literature as potent in vitro inhibitors of the PNP enzyme from Plasmodium falciparum (Dziekan et al., 2019), was tested. Using a two-fold serial dilution method in liquid medium (as described in Example 3), the MIC values for mefloquine and quinine were determined against clinical H. pylori strains resistant to MTZ, CLR and MTZ+CLR (M26, M91, M92 and M93), as well as the reference H. pylori strain 26695. Four clinical H. pylori strains isolated from adults, from primary infections (the subjects had never previously been treated against H. pylori infection) were tested. These strains come from the collection of the Department of Microbiology of the Medical University of Wroclaw and were obtained due to collaboration with Prof. Grażyna Gościniak, MD, PhD. […]

For assay [2], the system named is H. pylori. The conditions noted are these: MTZ according to EUCAST, 2021, kanamycin according to Irie et al., 1997, cited from earlier work.
The subject of assay [3] is H. pylori strain M26 (MTZ + CLR resistant). Description: Growth curve method / MIC, resistant strain M26. Type of assay: cell-based, Helicobacter pylori. Conditions: for MIC: strain M26, MTZ + CLR resistant. How it is done:
as §1, §2, §3, §4, §5
(§6) The antibacterial activity of two compounds, mefloquine (in the form of hydrochloride) and quinine, described in the literature as potent in vitro inhibitors of the PNP enzyme from Plasmodium falciparum (Dziekan et al., 2019), was tested. Using a two-fold serial dilution method in liquid medium (as described in Example 3), the MIC values for mefloquine and quinine were determined against clinical H. pylori strains resistant to MTZ, CLR and MTZ+CLR (M26, M91, M92 and M93), as well as the reference H. pylori strain 26695. Four clinical H. pylori strains isolated from adults, from primary infections (the subjects had never previously been treated against H. pylori infection) were tested. These strains come from the collection of the Department of Microbiology of the Medical University of Wroclaw and were obtained due to collaboration with Prof. Grażyna Gościniak, MD, PhD. The tested compounds belong to organic substances and are soluble in DMSO. The maximum tested concentration of quinine in H. pylori culture was 0.56 mM, and that of mefloquine was 2.25 mM. […] On each occasion, the effect of DMSO alone on the growth of the H. pylori strains tested was also checked. […] Kanamycin was used as a positive control and Mili-Q deionised water as a negative control. All experiments were carried out in triplicate. […]

For assay [4], the system named is H. pylori strain M91 (MTZ + CLR resistant). Description: Growth curve method / MIC, resistant strain M91. Type of assay: cell-based, Helicobacter pylori. The conditions noted are these: for MIC: strain M91, MTZ + CLR resistant. How it is done: as §1, §2, §3, §4, §5, §6
For assay [5], the system named is H. pylori strain M92 (CLR resistant). Nature of the assay: Growth curve method / MIC, resistant strain M92. The assay is classed as cell-based, Helicobacter pylori. Conditions: for MIC: strain M92, CLR resistant. How it is done: as §1, §2, §3, §4, §5, §6
Assay [6] has as its system H. pylori strain M93 (MTZ resistant). Description: Growth curve method / MIC, resistant strain M93. The assay is classed as cell-based, Helicobacter pylori. Conditions: for MIC: strain M93, MTZ resistant. How it is done:
as §1, §2, §3, §4, §5, §6

Assay [7] has as its system H. pylori strain N6. Description: Growth curve method / MIC, strain N6. Type of assay: cell-based, Helicobacter pylori. Conditions: strain N6; concentrations up to 5 mM. How it is done:
as §1, §2, §3, §4, §5
(§7) Inhibition by PLP and its metabolic precursors of the growth of H. pylori strains: 26695, N6 and P12 in culture was investigated using the growth curve method as described in Example 3. From these experiments, the minimum inhibitory concentration was determined as the lowest concentration of a compound that inhibits the visible growth of the bacteria, compared to growth in control samples without the tested compounds. All experiments were carried out in triplicate.

The test system of assay [8] is H. pylori strain P12. Description: Growth curve method / MIC, strain P12. The assay is classed as cell-based, Helicobacter pylori. The conditions noted are these: strain P12; concentrations up to 5 mM. How it is done:
as §1, §2, §3, §4, §5, §7

Where [9] appears, read: Helicobacter pylori, read-out: MIC.
[10] abbreviates: listed as Mefloquine (hydrochloride).
Setting [11] is: listed as Mefloquine (hydrochloride), read-out: MIC.

On to `Cc1ncc([N+](=O)[O-])n1CCO` [Metronidazole, metronidazole], for which the inhibition at 12 µM in assay [1] (Helicobacter pylori, metronidazole 12 μM (2 μg/ml), not maximum solubility, read-out: % inhibition of H. pylori cell cultures) was 89 to 92%. The “MIC (literature)” value was 8 ^f μg/ml and 47 μM in assay [2]; 47 μM and 8 μg/ml in assay [2] (listed as MTZ).
As for `OC(c1cc(C(F)(F)F)nc2c(C(F)(F)F)cccc12)C1CCCCN1` (stereo not shown) [mefloquine], the MIC in assay [1] (Helicobacter pylori) was 50 µM and 21 µg/mL; in assay [3] (setting [9]), 35 µM and 14.5 µg/mL; in assay [3] (setting [10]), “(14.5 μg/ml)”; in assay [3] (setting [11]), 35 µM; in assay [4] (setting [9]) it was 50 µM and 21 µg/mL; in assay [4] (setting [10]), “(21 μg/ml)”. The MIC in assay [4] (setting [11]) is 50 µM; in assay [5] (setting [9]), 40 µM and 17 µg/mL; in assay [5] (setting [10]), “(17 μg/ml)”; in assay [5] (setting [11]), 40 µM (≈ 15.1 µg/mL); in assay [6] (setting [9]), 35 µM and 14.5 µg/mL; in assay [6] (setting [10]), “(14.5 μg/ml)”. For the same compound, the MIC in assay [6] (setting [11]) is given as 35 µM (≈ 13.2 µg/mL).
For `Cc1ncc(CO)c(CN)c1O.Cl.Cl` [pyridoxamine dihydrochloride], the “inhibition of bacterial growth” value in assay [1], in assay [7] and in assay [8] was “no inhibition of bacterial growth” throughout.
`Cc1ncc(CO)c(CO)c1O` [pyridoxine]: the “inhibition of bacterial growth” value in assay [1], in assay [7] and in assay [8] was “no inhibition of bacterial growth” each time.
`C=C[C@H]1C[N@@]2CC[C@H]1C[C@H]2[C@H](O)c1ccnc2ccc(OC)cc12` [quinine]: the inhibition at 400 µM in assay [1] (Helicobacter pylori, quinine 0.4 mM, read-out: percentage of growth inhibition) was found to be 91%; in assay [3] (Helicobacter pylori, strain M26, quinine 0.4 mM, read-out: percentage of growth inhibition), 87%; in assay [4] (Helicobacter pylori, strain M91, quinine 0.4 mM, read-out: percentage of growth inhibition), 78%; in assay [5] (Helicobacter pylori, strain M92, quinine 0.4 mM, read-out: percentage of growth inhibition) it was 76%; in assay [6] (Helicobacter pylori, strain M93, quinine 0.4 mM, read-out: percentage of growth inhibition), 91%. In addition, the MIC in assay [1] (Helicobacter pylori) is ≥ 400 µM and ≥ 130 µg/mL; in assay [3] (setting [9]) it was ≥ 400 µM and ≥ 130 µg/mL; in assay [3] it was ≥0.4 mM and (≥130 μg/ml); in assay [4] (setting [9]), ≥ 560 µM and ≥ 182 µg/mL; in assay [4], ≥0.56 mM and (≥182 μg/ml); in assay [5] (setting [9]), ≥ 400 µM and ≥ 130 µg/mL. Further, the MIC in assay [5] was ≥0.4 mM and (≥130 μg/ml); in assay [6] (setting [9]), ≥ 400 µM and ≥ 130 µg/mL; in assay [6] it was ≥0.4 mM and (≥130 μg/ml). The inhibition at 560 µM in assay [4] (Helicobacter pylori, strain M91, quinine 0.56 mM (highest tested), read-out: percentage of growth inhibition) was determined as 86%.
